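Test compounds were applied to cells in 96-well plates for 48 hours at 5 doses. GI50: concentration for 50% inhibition of growth. Definition used: TGI = concentration required for complete inhibition of growth.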
Key:
Experiment in all cases: inhibition of tumour cell growth, NCI panel, 48 h
A549 NSCLC = tested on: A549 NSCLC
CAKI-1 renal = tested on: CAKI-1 renal
HOP-62 NSCLC = tested on: HOP-62 NSCLC
HT29 colon = tested on: HT29 colon
IGROV1 ovarian = tested on: IGROV1 ovarian
LOX IMVI melanoma = tested on: LOX IMVI melanoma
NCI-H23 lung = tested on: NCI-H23 lung
SK-OV-3 ovarian = tested on: SK-OV-3 ovarian
U251 CNS = tested on: U251 CNS
MDA-MB-435 = tested on: MDA-MB-435

`N#Cc1cccc(NC(=O)c2ccc(C(=O)O)c(C(=O)c3ccc(C(=O)O)c(C(=O)Nc4cccc(C#N)c4)c3)c2)c1` gave a TGI (A549 NSCLC) of over 100 µM, a TGI (CAKI-1 renal) of over 100 µM and a TGI (HOP-62 NSCLC) of over 100 µM. For the same compound, the TGI (HT29 colon) was over 100 µM, the TGI (IGROV1 ovarian) was over 100 µM and the TGI (LOX IMVI melanoma) was over 100 µM. For the same compound, the TGI (NCI-H23 lung) was over 100 µM, the TGI (SK-OV-3 ovarian) was over 100 µM and the TGI (U251 CNS) was over 100 µM.
For `CCCCCCCCCCCC(=O)OCC1OC(n2cc(F)c(=O)[nH]c2=O)C(NC(=O)OCc2ccccc2)C(O)C1O` (stereo unspecified), the TGI (A549 NSCLC) was 43.2 µM, the TGI (CAKI-1 renal) was over 100 µM and the TGI (HOP-62 NSCLC) was over 100 µM. For the same compound, the TGI (HT29 colon) was 29.8 µM, the TGI (IGROV1 ovarian) was over 100 µM and the TGI (LOX IMVI melanoma) was 32.4 µM. It also gave a TGI (NCI-H23 lung) of 93.6 µM, a TGI (SK-OV-3 ovarian) of over 100 µM and a TGI (U251 CNS) of 38.9 µM.
With `O=P(Oc1ccc(Cl)cc1)(Oc1ccc(Cl)cc1)N1CC1` the TGI (A549 NSCLC) was over 10 µM, the TGI (HOP-62 NSCLC) was over 10 µM and the TGI (HT29 colon) was over 10 µM. It also gave a TGI (LOX IMVI melanoma) of over 10 µM, a TGI (MDA-MB-435) of over 10 µM and a TGI (NCI-H23 lung) of over 10 µM. It also gave a TGI (SK-OV-3 ovarian) of over 10 µM and a TGI (U251 CNS) of over 10 µM.
With `O=C(/C=C/c1ccc(C(F)(F)F)cc1)c1ccc(Nc2nc(NCCO)nc(NCCO)n2)cc1` the GI50 (A549 NSCLC) was 2.91 µM, the TGI (A549 NSCLC) was 10.8 µM and the GI50 (HOP-62 NSCLC) was 2.42 µM. The TGI (HOP-62 NSCLC) was 7.99 µM, the GI50 (HT29 colon) was 2.5 µM and the TGI (HT29 colon) was 6.91 µM. It also gave a GI50 (IGROV1 ovarian) of 3 µM, a TGI (IGROV1 ovarian) of 9.51 µM and a GI50 (LOX IMVI melanoma) of 1.56 µM. For the same compound, the TGI (LOX IMVI melanoma) was 3 µM, the GI50 (MDA-MB-435) was 3.82 µM and the TGI (MDA-MB-435) was 14.2 µM. It also gave a GI50 (NCI-H23 lung) of 3.85 µM, a TGI (NCI-H23 lung) of 17.4 µM and a GI50 (SK-OV-3 ovarian) of 4 µM. The TGI (SK-OV-3 ovarian) was 15.1 µM.
Compound `CCC1C(C)c2c([nH]c3ccccc23)C2C(=O)N(c3ccccc3)C(=O)C21` (stereo unspecified) has a TGI (A549 NSCLC) of 48.5 µM, a TGI (HT29 colon) of 28.2 µM and a TGI (IGROV1 ovarian) of 22.3 µM. For the same compound, the TGI (LOX IMVI melanoma) was 31.8 µM, the TGI (NCI-H23 lung) was 41.8 µM and the TGI (SK-OV-3 ovarian) was 44.1 µM. For the same compound, the TGI (U251 CNS) was 29.3 µM.
`COc1ccc(C2OC(=O)c3c2ccc2ccccc32)c(C)c1` (stereo unspecified) gave a TGI (A549 NSCLC) of 73.4 µM, a TGI (HOP-62 NSCLC) of 50 µM and a TGI (HT29 colon) of over 100 µM. It also gave a TGI (IGROV1 ovarian) of over 100 µM, a TGI (NCI-H23 lung) of over 100 µM and a TGI (U251 CNS) of 20.2 µM.
With `O=C(c1cc(O)ccc1O)c1ccccc1C(Cl)(Cl)Cl` the TGI (A549 NSCLC) was over 100 µM, the TGI (CAKI-1 renal) was over 100 µM and the TGI (HOP-62 NSCLC) was over 100 µM. The TGI (HT29 colon) was over 100 µM, the TGI (IGROV1 ovarian) was over 100 µM and the TGI (NCI-H23 lung) was over 100 µM. For the same compound, the TGI (SK-OV-3 ovarian) was over 100 µM and the TGI (U251 CNS) was over 100 µM.
Work on `CC(=O)NS(=O)(=O)c1ccc(NC(=O)COC(=O)c2cccc3c(=O)c4ccccc4[nH]c23)cc1` yielded a TGI (A549 NSCLC) of over 100 µM, a TGI (HOP-62 NSCLC) of over 100 µM and a TGI (HT29 colon) of over 100 µM. The TGI (IGROV1 ovarian) was over 100 µM, the TGI (LOX IMVI melanoma) was over 100 µM and the TGI (NCI-H23 lung) was over 100 µM. The TGI (SK-OV-3 ovarian) was over 100 µM and the TGI (U251 CNS) was over 100 µM.
`CC1=NNC(=NCCN(C)C)C/C1=C/c1ccccc1Cl` gave a TGI (A549 NSCLC) of over 100 µM, a TGI (CAKI-1 renal) of over 100 µM and a TGI (HOP-62 NSCLC) of over 100 µM. It also gave a TGI (HT29 colon) of over 100 µM, a TGI (IGROV1 ovarian) of over 100 µM and a TGI (LOX IMVI melanoma) of over 100 µM. It also gave a TGI (NCI-H23 lung) of over 100 µM, a TGI (SK-OV-3 ovarian) of over 100 µM and a TGI (U251 CNS) of over 100 µM.
In the case of `Cc1ccc(S(=O)(=O)N(/N=C(\N)Oc2ccc(Cl)cc2)C(=N)Oc2ccc(Cl)cc2)cc1`, the TGI (A549 NSCLC) was over 100 µM, the TGI (CAKI-1 renal) was over 100 µM and the TGI (HOP-62 NSCLC) was over 100 µM. It also gave a TGI (HT29 colon) of over 100 µM, a TGI (IGROV1 ovarian) of over 100 µM and a TGI (LOX IMVI melanoma) of over 100 µM. For the same compound, the TGI (NCI-H23 lung) was over 100 µM, the TGI (SK-OV-3 ovarian) was over 100 µM and the TGI (U251 CNS) was over 100 µM.
With `COc1ccc(SC2c3cc(OC)c(OC)cc3Oc3nc(N)c(C#N)c(N)c32)cc1` (stereo unspecified) the GI50 (HOP-62 NSCLC) was 1.7 µM, the TGI (HOP-62 NSCLC) was 3.09 µM and the GI50 (HT29 colon) was 2.16 µM. It also gave a TGI (HT29 colon) of 5.04 µM, a GI50 (IGROV1 ovarian) of 0.762 µM and a TGI (IGROV1 ovarian) of 2.37 µM. For the same compound, the GI50 (LOX IMVI melanoma) was 0.585 µM, the TGI (LOX IMVI melanoma) was 1.86 µM and the GI50 (MDA-MB-435) was 1.5 µM. The TGI (MDA-MB-435) was 2.92 µM, the GI50 (NCI-H23 lung) was 1.45 µM and the TGI (NCI-H23 lung) was 3.01 µM. For the same compound, the GI50 (SK-OV-3 ovarian) was 1.81 µM, the TGI (SK-OV-3 ovarian) was 3.2 µM and the GI50 (U251 CNS) was 0.954 µM. For the same compound, the TGI (U251 CNS) was 2.18 µM.
`Cc1nc(C)c(C(=O)Nc2cccc3c2C(=O)NC3=O)cc1C(=O)Nc1cccc2c1C(=O)NC2=O` gave a TGI (A549 NSCLC) of over 100 µM, a TGI (CAKI-1 renal) of over 100 µM and a TGI (HOP-62 NSCLC) of over 100 µM. It also gave a TGI (HT29 colon) of over 100 µM, a TGI (IGROV1 ovarian) of over 100 µM and a TGI (LOX IMVI melanoma) of over 100 µM. The TGI (NCI-H23 lung) was over 100 µM, the TGI (SK-OV-3 ovarian) was over 100 µM and the TGI (U251 CNS) was over 100 µM.
`Nc1nc2c(ncn2C2OC(CO)C(O)C2N)c(=O)[nH]1` (stereo unspecified) was tested, and the TGI (A549 NSCLC) was over 100 µM, the TGI (CAKI-1 renal) was over 100 µM and the TGI (HOP-62 NSCLC) was over 100 µM. For the same compound, the TGI (HT29 colon) was over 100 µM, the TGI (IGROV1 ovarian) was over 100 µM and the TGI (LOX IMVI melanoma) was over 100 µM. It also gave a TGI (NCI-H23 lung) of over 100 µM, a TGI (SK-OV-3 ovarian) of over 100 µM and a TGI (U251 CNS) of over 100 µM.
`N/C(=N\NS(=O)(=O)c1ccccc1)Oc1ccc(Cl)cc1` was tested, and the TGI (A549 NSCLC) was over 100 µM, the TGI (CAKI-1 renal) was over 100 µM and the TGI (HOP-62 NSCLC) was over 100 µM. It also gave a TGI (HT29 colon) of over 100 µM, a TGI (IGROV1 ovarian) of over 100 µM and a TGI (LOX IMVI melanoma) of over 100 µM. It also gave a TGI (NCI-H23 lung) of over 100 µM, a TGI (SK-OV-3 ovarian) of over 100 µM and a TGI (U251 CNS) of over 100 µM.
`Cc1cnc[nH]c1=O` gave a TGI (A549 NSCLC) of over 100 µM, a TGI (CAKI-1 renal) of over 100 µM and a TGI (HOP-62 NSCLC) of over 100 µM. It also gave a TGI (HT29 colon) of over 100 µM, a TGI (IGROV1 ovarian) of over 100 µM and a TGI (LOX IMVI melanoma) of over 100 µM. The TGI (NCI-H23 lung) was over 100 µM, the TGI (SK-OV-3 ovarian) was over 100 µM and the TGI (U251 CNS) was over 100 µM.
